# Measurements taken from patent US9167822B2, “Antifungal compositions” (DSM IP ASSETS B.V., priority 2012, dated 2015).
# Values joined by “and” are separate entries in the source; they are usually repeats but may differ in a detail not shown here. Equal entries are not always repeated.
# Tests used:
# [1] = tested on: Botrytis cinerea; test: Treatment of strawberries: wounded, dipped in antifungal composition, then inoculated with Botrytis cinerea; assay type: in vivo; settings: 1000 ppm bixafen or both
# Method: (§1) Ten fresh, organic strawberries were used per treatment. Each strawberry was wounded with a 0.5 mm long cut and each wound was inoculated with 10 μl of a Botrytis cinerea suspension containing 1×10^5 of spores/ml. […] The pH of the compositions was 4. A composition without natamycin or bixafen was used as control. The treated strawberries were incubated in a closed box in the dark at 20° C.
# (§2) During incubation, mould growth on the strawberries was assessed in a twofold manner: (i) the number of moulded strawberries per total of 10 strawberries was counted; and (ii) the antifungal activity (in %) of the individual and combined active ingredients was determined by calculating the reduction in mould growth observed on the strawberries treated with the antifungal composition in comparison to the mould growth on the strawberries treated with the control composition. The expected antifungal activity (E in %) of the combined antifungal composition comprising both active ingredients was calculated according to the Colby equation (Colby, 1967): E=X+Y−[(X·Y)/100] wherein X and Y are the observed antifungal activities (in %) of the individual active ingredients X and Y, respectively. If the observed antifungal activity (O in %) of the combination exceeds the expected antifungal activity (E in %) of the combination and the synergy factor O/E is thus >1.0, the combined application of the active ingredients leads to a synergistic antifungal effect.
# After treatment, each strawberry was inoculated with 10 μl of a Botrytis cinerea suspension containing 1×10^5 of spores/ml. The treated strawberries were assessed on mould growth according to the two methods described in Example 3.
# [2] = tested on: Penicillium italicum; test: In vitro antifungal activity, 96-well microtiter plates; assay type: cell-based; settings: 25° C., day 10, 1.25 ppm natamycin, 25 ppm bixafen or both
# Method: Subsequently, 100 μl of a Botrytis cinerea suspension prepared in PCB medium was used to inoculated each well with 2.5×10^3 spores/ml.
# After incubation of the microtiter plates at 25° C., the in vitro antifungal activity (%) of the individual active ingredients was assessed by calculating the reduction in mould growth observed in the presence of the active ingredient in comparison to the mould growth observed in the absence of the active ingredient. The expected antifungal activity (E in %) of the active ingredient combination was calculated according to the Colby equation (Colby, 1967): E=X+Y−[(X·Y)/100] wherein X and Y are the observed antifungal activities (in %) of the individual active ingredients X and Y, respectively. If the observed antifungal activity (O in %) of the combination exceeds the expected antifungal activity (E in %) of the combination and the resulting synergy factor O/E is thus >1.0, the combined application of the active ingredients leads to a synergistic antifungal effect.
# Furthermore, Penicillium italicum was used for inoculation.
# [3] = tested on: Penicillium italicum; test: Treatment of apples wounded and inoculated with Penicillium italicum, then dipped; assay type: in vivo; settings: for Number of moulded apples/total number of 10 apples: 500 ppm natamycin; for Number of moulded apples per total of 10 apples: 250 ppm natamycin
# Method: Ten fresh, organic apples were used per treatment. Each apple was wounded once using a cork borer according to the method described by de Lapeyre de Bellaire and Dubois (1987). Subsequently, each wound was inoculated with 10 μl of a Penicillium italicum suspension containing 1×10^6 of spores/ml. […] The pH of the compositions was 4. A composition without natamycin or bixafen was used as control. The treated apples were incubated in a closed box in the dark at 20° C. […]
# During incubation, the treated apples were assessed on mould growth according to the two methods described in Example 3. […]
# [4] = tested on: Penicillium italicum; test: Treatment of mandarins wounded and inoculated with Penicillium italicum, then dipped; assay type: in vivo
# Method: Ten fresh, organic mandarins were used per treatment. The peel of each mandarin was wounded once using a cork borer according to the method described by de Lapeyre de Bellaire and Dubois (1987). Subsequently, each wound was inoculated with 10 μl of a Penicillium italicum suspension containing 1×10^5 of spores/ml. […] The pH of the compositions was 4.
# The treated mandarins were incubated in a closed box in the dark at 20° C. and assessed on mould growth during incubation.
# [5] = tested on: Botrytis cinerea; test: Treatment of strawberries: wounded, inoculated with Botrytis cinerea, then dipped in antifungal composition; assay type: in vivo
# Method: as §1, §2
# The treated strawberries were assessed on mould growth. The antifungal activity (in %) of the individual and combined active ingredients was determined according to the method described in Example 3. […]
# [6] = day 3, 500 ppm natamycin, 2000 ppm bixafen or both
# [7] = day 6, 250 ppm natamycin, 500 ppm bixafen or both
# [8] = day 6, 500 ppm natamycin, 1000 ppm bixafen or both
# [9] = day 6, 500 ppm natamycin, 2000 ppm bixafen or both
# [10] = day 7, 250 ppm natamycin, 500 ppm bixafen or both
# [11] = day 9, 250 ppm natamycin, 500 ppm bixafen or both
# [12] = day 9, 500 ppm natamycin, 1000 ppm bixafen or both
# [13] = day 9, 500 ppm natamycin, 2000 ppm bixafen or both
# [14] = day 11, 500 ppm natamycin, 2000 ppm bixafen or both
# [15] = day 14, 500 ppm natamycin, 1000 ppm bixafen or both
# [16] = day 14, 500 ppm natamycin, 2000 ppm bixafen or both
# [17] = day 4, 250 ppm natamycin, 250 ppm bixafen or both
# [18] = day 4, 250 ppm natamycin, 500 ppm bixafen or both
# [19] = day 4, 500 ppm natamycin, 2000 ppm bixafen or both
# [20] = day 6, 250 ppm natamycin, 250 ppm bixafen or both
# [21] = day 7, 250 ppm natamycin, 250 ppm bixafen or both
structure (smiles),measurement,setting,value
"Cn1cc(C(=O)Nc2ccc(F)cc2-c2ccc(Cl)c(Cl)c2)c(C(F)F)n1 [Bixafen, bixafen]",Observed antifungal activity O (%),"[1]; day 3, 500 ppm natamycin",72%
same,Number of moulded wounds/total number of 10 wounds,"[1]; day 5, 20° C., 250 ppm natamycin",8 and 8/10
same,Observed antifungal activity O (%),"[1]; day 5, 500 ppm natamycin",55%
same,Observed antifungal activity O (%),"[1]; day 6, 500 ppm natamycin",35%
same,Observed antifungal activity O (%),[2],50%
same,Number of moulded apples/total number of 10 apples,"[3]; Day 3, 20° C., 1000 ppm bixafen or both",6 and 6/10
same,Number of moulded apples/total number of 10 apples,"[3]; Day 3-4, 20° C., 2000 ppm bixafen or both",5/10
same,Number of moulded apples/total number of 10 apples,"[3]; Day 4, 20° C., 1000 ppm bixafen or both",6 and 6/10
same,Number of moulded apples per total of 10 apples,"[3]; Day 6, 20° C., 500 ppm bixafen or both",10 and 10/10
same,Number of moulded apples/total number of 10 apples,"[3]; Day 6, 20° C., 1000 ppm bixafen or both",8 and 8/10
same,Number of moulded apples/total number of 10 apples,"[3]; Day 6, 20° C., 2000 ppm bixafen or both",8 and 8/10
same,Number of moulded apples per total of 10 apples,"[3]; Day 6-9, 20° C., 250 ppm bixafen or both",all and 10/10
same,Number of moulded apples per total of 10 apples,"[3]; Day 7, 20° C., 500 ppm bixafen or both",10 and 10/10
same,Number of moulded apples/total number of 10 apples,"[3]; Day 7, 20° C., 1000 ppm bixafen or both",9 and 9/10
same,Number of moulded apples/total number of 10 apples,"[3]; Day 7, 20° C., 2000 ppm bixafen or both",8 and 8/10
same,Number of moulded apples per total of 10 apples,"[3]; Day 9, 20° C., 500 ppm bixafen or both",10 and 10/10
same,Number of moulded apples/total number of 10 apples,"[3]; Day 9-14, 20° C., 1000 ppm bixafen or both",all and 10/10
same,Number of moulded apples/total number of 10 apples,"[3]; Day 9-14, 20° C., 2000 ppm bixafen or both",all and 10/10
same,Number of moulded apples per total of 10 apples,"[3]; Day 11-15, 20° C., 250 ppm bixafen or both",all and 10/10
same,Observed antifungal activity O (%),"[3]; day 3, 500 ppm natamycin, 1000 ppm bixafen or both",47%
same,Observed antifungal activity O (%),[3]; [6],60%
same,Observed antifungal activity O (%),"[3]; day 6, 250 ppm natamycin, 250 ppm bixafen or both (bixafen 500 ppm)",17%
same,Observed antifungal activity O (%),[3]; [7],33%
same,Observed antifungal activity O (%),[3]; [8],44%
same,Observed antifungal activity O (%),[3]; [9],39%
same,Observed antifungal activity O (%),[3]; [10],39%
same,Observed antifungal activity O (%),"[3]; day 9, 250 ppm natamycin, 250 ppm bixafen or both (bixafen 500 ppm)",13%
same,Observed antifungal activity O (%),[3]; [11],17%
same,Observed antifungal activity O (%),[3]; [12],38%
same,Observed antifungal activity O (%),[3]; [13],29%
same,Observed antifungal activity O (%),"[3]; day 11, 250 ppm natamycin, 250 ppm bixafen or both (bixafen 500 ppm)",0%
same,Observed antifungal activity O (%),"[3]; day 11, 500 ppm natamycin, 1000 ppm bixafen or both",30%
same,Observed antifungal activity O (%),[3]; [14],30%
same,Observed antifungal activity O (%),"[3]; day 14, 250 ppm natamycin, 250 ppm bixafen or both (bixafen 500 ppm)",6%
same,Observed antifungal activity O (%),[3]; [15],21%
same,Observed antifungal activity O (%),[3]; [16],36%
same,Observed antifungal activity O (%),"[4]; day 3, 250 ppm natamycin, 250 ppm bixafen or both",65%
same,Observed antifungal activity O (%),[4]; [17],27%
same,Observed antifungal activity O (%),[4]; [18],40%
same,Observed antifungal activity O (%),"[4]; day 4, 500 ppm natamycin, 1000 ppm bixafen or both",37%
same,Observed antifungal activity O (%),[4]; [19],47%
same,Observed antifungal activity O (%),[4]; [20],28%
same,Observed antifungal activity O (%),[4]; [7],26%
same,Observed antifungal activity O (%),[4]; [8],22%
same,Observed antifungal activity O (%),[4]; [9],32%
same,Observed antifungal activity O (%),[4]; [21],10%
same,Observed antifungal activity O (%),[4]; [10],10%
same,Observed antifungal activity O (%),"[4]; day 7, 500 ppm natamycin, 1000 ppm bixafen or both",6%
same,Observed antifungal activity O (%),"[4]; day 9, 250 ppm natamycin, 250 ppm bixafen or both",0%
same,Observed antifungal activity O (%),[4]; [11],0%
same,Observed antifungal activity O (%),[4]; [12],2%
same,Observed antifungal activity O (%),[4]; [13],7%
same,Observed antifungal activity O (%),"[4]; day 11, 250 ppm natamycin, 500 ppm bixafen or both",0%
same,Observed antifungal activity O (%),[4]; [14],9%
same,Observed antifungal activity O (%),"[4]; day 13, 250 ppm natamycin, 500 ppm bixafen or both",0%
same,Observed antifungal activity O (%),[4]; [15],0%
same,Observed antifungal activity O (%),[4]; [16],3%
same,Observed antifungal activity O (%),"[4]; day 15, 250 ppm natamycin, 500 ppm bixafen or both",0%
same,Observed antifungal activity O (%),"[4]; day 15, 500 ppm natamycin, 1000 ppm bixafen or both",0%
same,Observed antifungal activity O (%),"[4]; day 15, 500 ppm natamycin, 2000 ppm bixafen or both",0%
same,Number of moulded strawberries/total number of 10 strawberries,"[5]; Day 3, 20° C., 250 ppm natamycin, 250 ppm bixafen or both",9 and 9/10
same,Number of moulded strawberries/total number of 10 strawberries,"[5]; Day 3, 20° C., 500 ppm natamycin, 2000 ppm bixafen or both",8 and 8/10
same,Number of moulded strawberries/total number of 10 strawberries,"[5]; Day 4, 20° C., 250 ppm natamycin, 250 ppm bixafen or both",9 and 9/10
same,Number of moulded strawberries/total number of 10 strawberries,"[5]; Day 4, 20° C., 500 ppm natamycin, 2000 ppm bixafen or both",9 and 9/10
same,Number of moulded strawberries/total number of 10 strawberries,"[5]; Day 5, 20° C., 250 ppm natamycin, 250 ppm bixafen or both",10 and 10/10
same,Number of moulded strawberries/total number of 10 strawberries,"[5]; Day 5-6, 20° C., 500 ppm natamycin, 2000 ppm bixafen or both",10 and 10/10
same,Observed antifungal activity O (%),[5]; [6],62%
same,Observed antifungal activity O (%),[5]; [17],47%
same,Observed antifungal activity O (%),[5]; [18],65%
same,Observed antifungal activity O (%),[5]; [19],55%
same,Observed antifungal activity O (%),"[5]; day 5, 250 ppm natamycin, 250 ppm bixafen or both",33%
same,Observed antifungal activity O (%),"[5]; day 5, 500 ppm natamycin, 2000 ppm bixafen or both",34%
same,Observed antifungal activity O (%),[5]; [20],23%
same,Observed antifungal activity O (%),[5]; [7],33%
same,Observed antifungal activity O (%),[5]; [9],27%
same,Observed antifungal activity O (%),[5]; [21],10%
same,Observed antifungal activity O (%),[5]; [10],12%
same,Observed antifungal activity O (%),"[5]; day 7, 500 ppm natamycin, 2000 ppm bixafen or both",12%
same,Observed antifungal activity O (%),[5]; [11],5%
same,Observed antifungal activity O (%),[5]; [13],3%
same,Observed antifungal activity O (%),"[5]; day 10, 250 ppm natamycin, 500 ppm bixafen or both",0%
